The results in this text go back to US12139520B2 (priority 2020, dated 2024).

Bridge positions count the residues as written; N and C are the ends. Square brackets hold non-standard residues; d marks the D form. Peptide text beside a SMILES is read from it. Hyp = O=C(O)[C@@H]1C[C@@H](O)CN1

A short description of series [1]: Physical stability of peptide analogues (Thioflavin T fibrillation). Format: physicochemical. The following applies: maximum ThT signal normalized between hAMY maximum and buffer background; 40° C., shaking, four days; pH 7 per table title. Put shortly:
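Samples are stressed at 40 °C for four days, being shaken at 700 rpm before each 10-min fluorescence reading of 4 μM Thioflavin T. Buffers were pH 4 acetate or pH 7 phosphate. Reported values are smoothed maximum ThT signals as a percentage of the hAMY-to-background range.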

The next series addresses T1, hAMY3 receptor (Homo sapiens, UniProt O60896+P30988).
T1 sequence (P30988 25-474): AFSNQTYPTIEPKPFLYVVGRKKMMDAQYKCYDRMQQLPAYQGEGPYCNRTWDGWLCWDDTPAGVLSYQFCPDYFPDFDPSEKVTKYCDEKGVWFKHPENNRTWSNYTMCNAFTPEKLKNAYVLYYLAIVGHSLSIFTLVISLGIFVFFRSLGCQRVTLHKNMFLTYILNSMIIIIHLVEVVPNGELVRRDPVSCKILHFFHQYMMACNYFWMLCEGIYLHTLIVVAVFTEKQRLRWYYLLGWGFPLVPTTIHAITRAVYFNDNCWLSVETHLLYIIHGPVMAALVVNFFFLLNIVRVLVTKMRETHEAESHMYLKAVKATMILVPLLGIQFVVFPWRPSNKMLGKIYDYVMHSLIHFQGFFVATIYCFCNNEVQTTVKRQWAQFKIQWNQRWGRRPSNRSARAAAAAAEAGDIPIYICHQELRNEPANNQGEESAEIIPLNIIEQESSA
T1 sequence (O60896 24-148 partner): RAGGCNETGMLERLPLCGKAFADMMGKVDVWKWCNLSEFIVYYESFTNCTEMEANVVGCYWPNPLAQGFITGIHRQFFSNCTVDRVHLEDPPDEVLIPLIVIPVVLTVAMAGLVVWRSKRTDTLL
The experiment in a line: cAMP assay for in vitro receptor activation, hAMY3-R. The class given is cell-based. The following applies: cAMP assay, hAMY3 receptor; read-out: hAMY3R EC50. Put shortly:
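Monoclonal cell line stably overexpressing hAMY3 receptor, plated in DPBS with 0.05% casein and 0.5 mM IBMX, was stimulated with graded compound doses for 30 min at room temperature. cAMP accumulation was read by time-resolved FRET one hour after adding detection reagents.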
For orientation: Cyclic AMP is a second messenger, typically raised through Gs and lowered through Gi signalling.

Broadly, the EC50 is the midpoint of the concentration-response curve. In the case of `CC[C@H](C)[C@H](NC(=O)[C@H](CC(N)=O)NC(=O)[C@H](CO)NC(=O)[C@H](CCCNC(=N)N)NC(=O)[C@@H]1CCCN1C(=O)[C@H](C)NC(=O)[C@@H](NC(=O)[C@H](CC(N)=O)NC(=O)[C@H](CC(=O)O)NC(=O)[C@H](CCCCN)NC(=O)[C@H](CC(=O)O)NC(=O)[C@H](CCCCN)NC(=O)[C@H](CC(=O)O)NC(=O)[C@@H](NC(=O)[C@H](Cc1ccccc1)NC(=O)[C@H](CCC(N)=O)NC(=O)[C@H](Cc1ccc(O)cc1)NC(=O)[C@@H](NC(=O)[C@H](CCC(N)=O)NC(=O)[C@H](Cc1c[nH]cn1)NC(=O)[C@H](C)NC(=O)[C@H](CC(C)C)NC(=O)[C@H](CCCNC(=N)N)NC(=O)[C@H](CCC(N)=O)NC(=O)[C@@H](NC(=O)[C@@H](NC(=O)[C@@H]1CSSC[C@H](NC(=O)CN)C(=O)N[C@@H](CCCNC(=N)N)C(=O)N[C@@H]([C@@H](C)O)C(=O)NCC(=O)N[C@@H]([C@@H](C)O)C(=O)N1)[C@@H](C)O)C(C)C)[C@@H](C)CC)[C@@H](C)O)C(C)C)C(=O)NCC(=O)N1CCC[C@H]1C(=O)N[C@@H](CCC(N)=O)C(=O)NCC(=O)N1C[C@H](O)C[C@H]1C(N)=O` [compound 165] (H-GCRTGTCTVQRLAHQIYQFTDKDKDNVAPRSNIGPQG[Hyp]-NH2; disulfide 2-7; N-terminus assumed), the “Max ThT signal (%)” value in series [1] turned out to be 4.800%. The 50% effective concentration (EC50) at hAMY3 receptor is 0.054 nM.

For the compound `CC[C@H](C)[C@H](NC(=O)[C@H](CCC(N)=O)NC(=O)[C@H](Cc1c[nH]cn1)NC(=O)[C@H](C)NC(=O)[C@H](CC(C)C)NC(=O)[C@H](CCCNC(=N)N)NC(=O)[C@H](CCC(N)=O)NC(=O)[C@@H](NC(=O)[C@@H](NC(=O)[C@@H]1CSSC[C@H](NC(=O)CN)C(=O)N[C@@H](CCCNC(=N)N)C(=O)N[C@@H]([C@@H](C)O)C(=O)NCC(=O)N[C@@H]([C@@H](C)O)C(=O)N1)[C@@H](C)O)C(C)C)C(=O)N[C@@H](Cc1ccc(O)cc1)C(=O)N[C@@H](CCC(N)=O)C(=O)N[C@@H](Cc1ccccc1)C(=O)N[C@H](C(=O)N[C@@H](CC(=O)O)C(=O)N[C@@H](CCCCN)C(=O)N[C@@H](CC(=O)O)C(=O)N[C@@H](CCCCN)C(=O)N[C@@H](CC(=O)O)C(=O)N[C@@H](CC(N)=O)C(=O)N[C@H](C(=O)N[C@@H](C)C(=O)N1CCC[C@H]1C(=O)N[C@@H](CCCNC(=N)N)C(=O)N[C@@H](CO)C(=O)N[C@@H](CC(N)=O)C(=O)N[C@H](C(=O)N[C@@H](CO)C(=O)N1CCC[C@H]1C(=O)N[C@@H](CC(N)=O)C(=O)NCC(=O)N1C[C@H](O)C[C@H]1C(N)=O)C(C)C)C(C)C)[C@@H](C)O` [compound 166] (H-GCRTGTCTVQRLAHQIYQFTDKDKDNVAPRSNVSPNG[Hyp]-NH2; disulfide 2-7; N-terminus assumed), the “Max ThT signal (%)” value in series [1] came out at 2.000%. Moreover, the EC50 on hAMY3 receptor was determined as 0.056 nM.

On to `CC[C@H](C)[C@H](NC(=O)[C@H](CCC(N)=O)NC(=O)[C@H](Cc1c[nH]cn1)NC(=O)[C@H](C)NC(=O)[C@H](CC(C)C)NC(=O)[C@H](CCCNC(=N)N)NC(=O)[C@H](CCC(N)=O)NC(=O)[C@@H](NC(=O)[C@@H](NC(=O)[C@@H]1CSSC[C@H](NC(=O)CN)C(=O)N[C@@H](CCCNC(=N)N)C(=O)N[C@@H](Cc2ccccc2)C(=O)NCC(=O)N[C@@H]([C@@H](C)O)C(=O)N1)[C@@H](C)O)C(C)C)C(=O)N[C@@H](Cc1ccc(O)cc1)C(=O)N[C@@H](CCC(N)=O)C(=O)N[C@@H](Cc1ccccc1)C(=O)N[C@H](C(=O)N[C@@H](CC(=O)O)C(=O)N[C@@H](CCCCN)C(=O)N[C@@H](CC(=O)O)C(=O)N[C@@H](CCCCN)C(=O)N[C@@H](CC(=O)O)C(=O)N[C@@H](CC(N)=O)C(=O)N[C@H](C(=O)N[C@@H](C)C(=O)N1CCC[C@H]1C(=O)N[C@@H](CCCNC(=N)N)C(=O)N[C@@H](CO)C(=O)N[C@@H](CCCCN)C(=O)N[C@H](C(=O)N[C@@H](CO)C(=O)N1CCC[C@H]1C(=O)N[C@@H](CCC(N)=O)C(=O)NCC(=O)N1C[C@H](O)C[C@H]1C(N)=O)C(C)C)C(C)C)[C@@H](C)O` [compound 167] (H-GCRFGTCTVQRLAHQIYQFTDKDKDNVAPRSKVSPQG[Hyp]-NH2; disulfide 2-7; N-terminus assumed), for which the “Max ThT signal (%)” value in series [1] stood at 6.600%. The concentration giving a half-maximal response (EC50) at hAMY3 receptor turned out to be 0.056 nM.

As for `CC[C@H](C)[C@H](NC(=O)[C@H](CCC(N)=O)NC(=O)[C@H](Cc1c[nH]cn1)NC(=O)[C@H](C)NC(=O)[C@H](CC(C)C)NC(=O)[C@H](CCCNC(=N)N)NC(=O)[C@H](CCC(N)=O)NC(=O)[C@@H](NC(=O)[C@@H](NC(=O)[C@@H]1CSSC[C@H](NC(=O)CN)C(=O)N[C@@H](CCCNC(=N)N)C(=O)N[C@@H]([C@@H](C)O)C(=O)NCC(=O)N[C@@H]([C@@H](C)O)C(=O)N1)[C@@H](C)O)C(C)C)C(=O)N[C@@H](Cc1ccc(O)cc1)C(=O)N[C@@H](CCC(N)=O)C(=O)N[C@@H](Cc1ccccc1)C(=O)N[C@H](C(=O)N[C@@H](CC(=O)O)C(=O)N[C@@H](CCCCN)C(=O)N[C@@H](CC(=O)O)C(=O)N[C@@H](CCCCN)C(=O)N[C@@H](CC(=O)O)C(=O)N[C@@H](CC(N)=O)C(=O)N[C@H](C(=O)N[C@@H](C)C(=O)N1CCC[C@H]1C(=O)N[C@@H](CCCNC(=N)N)C(=O)N[C@H](C(=O)N[C@@H](CC(N)=O)C(=O)N[C@H](C(=O)N[C@@H](CO)C(=O)N1CCC[C@H]1C(=O)N[C@@H](CC(N)=O)C(=O)NCC(=O)N1C[C@H](O)C[C@H]1C(N)=O)[C@@H](C)CC)[C@@H](C)O)C(C)C)[C@@H](C)O` [compound 170] (H-GCRTGTCTVQRLAHQIYQFTDKDKDNVAPRTNISPNG[Hyp]-NH2; disulfide 2-7), in series [1], the “Max ThT signal (%)” value was 1.800%. Further, the EC50 on hAMY3 receptor was determined as 0.064 nM.

Turning to `CC[C@H](C)[C@H](NC(=O)[C@H](CCC(N)=O)NC(=O)[C@H](Cc1c[nH]cn1)NC(=O)[C@H](C)NC(=O)[C@H](CC(C)C)NC(=O)[C@H](CCCNC(=N)N)NC(=O)[C@H](CCC(N)=O)NC(=O)[C@@H](NC(=O)[C@@H](NC(=O)[C@@H]1CSSC[C@H](NC(=O)CN)C(=O)N[C@@H](CCCNC(=N)N)C(=O)N[C@@H]([C@@H](C)O)C(=O)NCC(=O)N[C@@H]([C@@H](C)O)C(=O)N1)[C@@H](C)O)C(C)C)C(=O)N[C@@H](Cc1ccc(O)cc1)C(=O)N[C@@H](CCC(N)=O)C(=O)N[C@@H](Cc1ccccc1)C(=O)N[C@H](C(=O)N[C@@H](CC(=O)O)C(=O)N[C@@H](CCCCN)C(=O)N[C@@H](CC(=O)O)C(=O)N[C@@H](CCCCN)C(=O)N[C@@H](CC(=O)O)C(=O)N[C@@H](CC(N)=O)C(=O)N[C@H](C(=O)N[C@@H](C)C(=O)N1CCC[C@H]1C(=O)N[C@@H](CCCNC(=N)N)C(=O)N[C@H](C(=O)N[C@@H](CC(N)=O)C(=O)N[C@H](C(=O)N[C@@H](CO)C(=O)N1CCC[C@H]1C(=O)N[C@@H](CCC(N)=O)C(=O)NCC(=O)N[C@@H](Cc1ccc(O)cc1)C(N)=O)C(C)C)[C@@H](C)O)C(C)C)[C@@H](C)O` [compound 176] (H-GCRTGTCTVQRLAHQIYQFTDKDKDNVAPRTNVSPQGY-NH2; disulfide 2-7; N-terminus assumed), the “Max ThT signal (%)” value in series [1] is listed as 6.800%. In addition, the EC50 on hAMY3 receptor stood at 0.076 nM.

`CC[C@H](C)[C@H](NC(=O)[C@H](CCC(N)=O)NC(=O)[C@H](Cc1c[nH]cn1)NC(=O)[C@H](C)NC(=O)[C@H](CC(C)C)NC(=O)[C@H](CCCNC(=N)N)NC(=O)[C@H](CCC(N)=O)NC(=O)[C@@H](NC(=O)[C@@H](NC(=O)[C@@H]1CSSC[C@H](NC(=O)CN)C(=O)N[C@@H](CCCNC(=N)N)C(=O)N[C@@H](Cc2ccccc2)C(=O)NCC(=O)N[C@@H]([C@@H](C)O)C(=O)N1)[C@@H](C)O)C(C)C)C(=O)N[C@@H](Cc1ccc(O)cc1)C(=O)N[C@@H](CCC(N)=O)C(=O)N[C@@H](Cc1ccccc1)C(=O)N[C@H](C(=O)N[C@@H](CC(=O)O)C(=O)N[C@@H](CCCCN)C(=O)N[C@@H](CC(=O)O)C(=O)N[C@@H](CCCCN)C(=O)N[C@@H](CC(=O)O)C(=O)N[C@@H](CC(N)=O)C(=O)N[C@H](C(=O)N[C@@H](C)C(=O)N1CCC[C@H]1C(=O)N[C@@H](CCCNC(=N)N)C(=O)N[C@@H](CO)C(=O)N[C@@H](CC(N)=O)C(=O)N[C@H](C(=O)N[C@@H](CO)C(=O)N1CCC[C@H]1C(=O)N[C@@H](CCC(N)=O)C(=O)NCC(=O)N[C@@H](Cc1ccc(O)cc1)C(N)=O)[C@@H](C)CC)C(C)C)[C@@H](C)O` [compound 182] (H-GCRFGTCTVQRLAHQIYQFTDKDKDNVAPRSNISPQGY-NH2; disulfide 2-7; N-terminus assumed): the “Max ThT signal (%)” value in series [1] was determined as 15.600%. In addition, the EC50 at hAMY3 receptor came out at 0.085 nM.
